Source: patent US20240059703A1 (AMGEN INC., priority 2021, published 2024)

Key:
[1] = system: A549 (human lung carcinoma) cells; experiment: Cell Viability Assay (CellTiter-Glo), A549; format: cell-based; conditions: Homo sapiens, A549, 72 h
In short: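 Seeding at 1.67E+04 cells/mL is followed by overnight attachment at 37° C., 5% CO2. Serially diluted compound is added for 72 h. Viability is read by CellTiter-Glo luminescence, scaled to DMSO and fitted (4-parameter logistic) to give IC50.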

[2] = system: MIA PaCa-2 (human pancreatic carcinoma) cells; experiment: Cell Viability Assay (CellTiter-Glo), MIA PaCa-2; format: cell-based; conditions: Homo sapiens, MIA PaCa-2, 72 h
Method: Serially-diluted compound or DMSO was added to the cells, and plates were incubated at 37° C., 5% CO2 for 72 h. Cell viability was measured using a CellTiter-Glo® Luminescent Cell Viability Assay kit (Promega) according to the manufacturer's protocol. The luminescence signal of treated samples was normalized to DMSO control, and data were analyzed using a 4-parameter logistic model to calculate IC50 values.

KRAS G12C = KRAS G12C (Homo sapiens (Human), UniProt P01116, C118A/G12C); experiment: 2 h coupled exchange assay; format: biochemical; conditions: Avg 2 h Coupled exchange IC50, 2 h compound pre-incubation, SOS-mediated nucleotide exchange
Method: The term “2 h coupled exchange assay” or “20 h coupled exchange assay” as used herein refers to the assay described in the Section entitled “BIOLOGICAL EVALUATION.”

Sequence of KRAS G12C (P01116 other isoform, or with tags, fused parts or gaps G12C/C118A): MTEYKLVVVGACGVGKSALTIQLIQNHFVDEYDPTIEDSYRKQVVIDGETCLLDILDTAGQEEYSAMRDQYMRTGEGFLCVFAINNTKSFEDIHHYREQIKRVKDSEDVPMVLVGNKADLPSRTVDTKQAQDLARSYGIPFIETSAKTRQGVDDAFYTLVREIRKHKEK

SMILES	IC50 [1]	IC50 [2]	IC50 (KRAS G12C)
C=CC(=O)N1CC2(CCN(c3nc4c(c(-c5c(C(F)(F)F)ccc6[nH]ncc56)c3C#N)C[C@H]3C[C@@H]4C3(C)C)C2)C1 [Example 2-31, (1R,9R)-10,10-dimethyl-4-(2-(2-propenoyl)-2,6-diazaspiro[3.4]octan-6-yl)-6-(5-(trifluoromethyl)-1H-indazol-4-yl)-3-azatricyclo[7.1.1.0^2,7]undeca-2,4,6-triene-5-carbonitrile]	2.78 µM	54 nM	53 nM
C=CC(=O)N1CC2(CCN(c3nc4c(c(-c5c(C)c(Cl)cc6[nH]ncc56)c3C)COC(C)(C)C4)C2)C1 [Example 2-36, 1-(6-(4-(6-chloro-5-methyl-1H-indazol-4-yl)-3,7,7-trimethyl-7,8-dihydro-5H-pyrano[4,3-b]pyridin-2-yl)-2,6-diazaspiro[3.4]octan-2-yl)-2-propen-1-one]	> 5 µM	13 nM	20 nM
C=CC(=O)N1CC2(CCN(c3nc4c(c(-c5cc(O)cc6ccccc56)c3C#N)C3CCC4C3)C2)C1 [Example 2-38, (1R,8S)-6-(3-hydroxy-1-naphthalenyl)-4-(2-(2-propenoyl)-2,6-diazaspiro[3.4]octan-6-yl)-3-azatricyclo[6.2.1.0^2,7]undeca-2,4,6-triene-5-carbonitrile|(1S, 8R)-6-(3-hydroxy-1-naphthalenyl)-4-(2-(2-propenoyl)-2,6-diazaspiro[3.4]octan-6-yl)-3-azatricyclo[6.2.1.0^2,7]undeca-2,4,6-triene-5-carbonitrile]	3.42 µM	157 nM	67 nM
C=CC(=O)N1CC2(CCN(c3nc4cc(OC)ccc4c(-c4c(C)ccc5[nH]ncc45)c3C)C2)C1 [Example 2-48, 1-(6-(7-methoxy-3-methyl-4-(5-methyl-1H-indazol-4-yl)-2-quinolinyl)-2,6-diazaspiro[3,4]octan-2-yl)-2-propen-1-one]	> 5 µM	885 nM	109 nM
C=CC(=O)N1CC2(CCN(c3nc4cc(OC)ccc4c(-c4c(C)ccc5cn[nH]c45)c3C)C2)C1 [Example 2-49, 1-(6-(7-methoxy-3-methyl-4-(6-methyl-1H-indazol-7-yl)-2-quinolinyl)-2,6-diazaspiro[3.4]octan-2-yl)-2-propen-1-one]	> 5 µM	1210 nM	323 nM
C=CC(=O)N1CC2(CCN(c3nc4cc(OC)ccc4c(-c4c(C)ccc5cnn(C)c45)c3C)C2)C1 [Example 2-50, 1-(6-(4-(1,6-dimethyl-1H-indazol-7-yl)-7-methoxy-3-methyl-2-quinolinyl)-2,6-diazaspiro[3,4]octan-2-yl)-2-propen-1-one]	> 5 µM	2610 nM	466 nM
C=CC(=O)N1CC2(CCN(c3cc4c(c(-c5cc(O)cc6ccccc56)c3C#N)OCCC4)C2)C1 [Example 2-52, 8-(3-hydroxy-1-naphthalenyl)-6-(2-(2-propenoyl)-2,6-diazaspiro[3.4]octan-6-yl)-3,4-dihydro-2H-chromene-7-carbonitrile]	> 5 µM	61 nM	26 nM
C=CC(=O)N1CC2(CCN(c3nc4c(c(-c5cc(O)ccc5C)c3C)CCC(C)(C)C4)C2)C1 [Example 2-62, 1-(6-(4-(5-hydroxy-2-methylphenyl)-3,7,7-trimethyl-5,6,7,8-tetrahydro-2-quinolinyl)-2,6-diazaspiro[3,4]octan-2-yl)-2-propen-1-one]	> 5 µM	1270 nM	186 nM
C=CC(=O)N1CC2(CCN(c3nc4c(c(-c5cc(O)ccc5C)c3Cl)COC(C)(C)C4)C2)C1 [Example 2-79, 1-(6-(3-chloro-4-(5-hydroxy-2-methylphenyl)-7,7-dimethyl-7,8-dihydro-5H-pyrano[4,3-b]pyridin-2-yl)-2,6-diazaspiro[3.4]octan-2-yl)-2-propen-1-one]	> 5 µM	159 nM	71 nM
C=CC(=O)N1CC2(CCN(c3nc4c(c(-c5c(C)ccc6[nH]ncc56)c3Cl)COC(C)(C)C4)C2)C1 [Example 2-83, 1-(6-(3-chloro-7,7-dimethyl-4-(5-methyl-1H-indazol-4-yl)-7,8-dihydro-5H-pyrano[4,3-b]pyridin-2-yl)-2,6-diazaspiro[3.4]octan-2-yl)-2-propen-1-one]	12.2 µM	17 nM	33 nM
C=CC(=O)N1CC2(CCN(c3cc4c(c(-c5c(C)ccc6[nH]ncc56)c3C#N)CCCC4)C2)C1 [Example 2-93, 1-(5-methyl-1H-indazol-4-yl)-3-(2-(2-propenoyl)-2,6-diazaspiro[3.4]octan-6-yl)-5,6,7,8-tetrahydro-2-naphthalenecarbonitrile]	2.04 µM	70 nM	19 nM
C=CC(=O)N1CC2(CCN(c3cc4c(c(-c5c(C)ccc6[nH]ncc56)c3C#N)COCC4)C2)C1 [Example 2-95, 8-(5-methyl-1H-indazol-4-yl)-6-(2-(2-propenoyl)-2,6-diazaspiro[3.4]octan-6-yl)-3,4-dihydro-1H-2-benzopyran-7-carbonitrile]	> 5 µM	792 nM	88 nM

More lines, now with the values ahead:

IC50 [1]	IC50 [2]	IC50 (KRAS G12C)	SMILES
> 5 µM	175 nM	28 nM	C=CC(=O)N1CC2(CCN(c3nc4c(c(-c5cc(O)cc6ncccc56)c3C#N)C[C@H]3C[C@@H]4C3(C)C)C2)C1 [Example 2-42, (1R,9R)-6-(7-hydroxy-5-quinolinyl)-10,10-dimethyl-4-(2-(2-propenoyl)-2,6-diazaspiro[3,4]octan-6-yl)-3-azatricyclo[7.1.1.0^2,7]undeca-2,4,6-triene-5-carbonitrile]
> 5 µM	432 nM	39 nM	C=CC(=O)N1CC2(CCN(c3nc4c(c(-c5cc(O)ccc5Cl)c3C#N)C[C@H]3C[C@@H]4C3(C)C)C2)C1 [Example 2-64, (1R,9R)-6-(2-chloro-5-hydroxyphenyl)-10,10-dimethyl-4-(2-(2-propenoyl)-2,6-diazaspiro[3.4]octan-6-yl)-3-azatricyclo[7.1.1.0^2,7]undeca-2,4,6-triene-5-carbonitrile]
> 5 µM	735 nM	89 nM	C=CC(=O)N1CC2(CCN(c3nc4c(c(-c5cc(O)ccc5F)c3C#N)C[C@H]3C[C@@H]4C3(C)C)C2)C1 [Example 2-66, (1R,9R)-6-(2-fluoro-5-hydroxyphenyl)-10,10-dimethyl-4-(2-(2-propenoyl)-2,6-diazaspiro[3.4]octan-6-yl)-3-azatricyclo[7.1.1.0^2,7]undeca-2,4,6-triene-5-carbonitrile]
> 5 µM	381 nM	38 nM	C=CC(=O)N1CC2(CCN(c3nc4c(c(-c5cc(O)ccc5C)c3C#N)C[C@H]3C[C@@H]4C3(C)C)C2)C1 [Example 2-67, (1R,9R)-6-(5-hydroxy-2-methylphenyl)-10,10-dimethyl-4-(2-(2-propenoyl)-2,6-diazaspiro[3.4]octan-6-yl)-3-azatricyclo[7.1.1.0^2,7]undeca-2,4,6-triene-5-carbonitrile]
> 5 µM	1940 nM	228 nM	C=CC(=O)N1CC2(CCN(c3nc4c(c(-c5c(F)cccc5CO)c3C#N)C[C@H]3C[C@@H]4C3(C)C)C2)C1 [Example 2-73, (1R,9R)-6-(2-fluoro-6-(hydroxymethyl)phenyl)-10,10-dimethyl-4-(2-(2-propenoyl)-2,6-diazaspiro[3.4]octan-6-yl)-3-azatricyclo[7.1.1.0^2,7]undeca-2,4,6-triene-5-carbonitrile]
